Tested on: progenerating CD34+ stock cells obtained from human bone marrow
Test: Cytolysis of CD34+ progenerating stock cells after chemotherapy treatment (SYTOX green)
Type: cell-based
Settings: propolis 0 μg/ml (Control)
Procedure: The objective of the test is to evaluate the effect of the propolis on the cytolysis of progenerating CD34+ stock cells obtained from human bone marrow following the application of chemotherapy treatment (epirubicin and taxotere).
The culture medium that is used is as follows: IMDM, 15 SVF, SCF (50 ng/ml), TPO (50 ng/ml), FK (50 ng/ml).
The test protocol is described below.
On D3: thawing and seeding with 50,000 cells/ml in a flask ([…])
On D0: marking and seeding with 6,000 cells/well in a 96-well plate
Between D0 and D4: • Treatment of cells with a propolis extract (Example 1) between D0 and D3 with the following doses: 0, 0.5, 1, 4, 10 and 20 μg/ml • Treatment of cells with chemotherapy agents (epirubicin at […] and taxotere […]) between D1 and D3
On D5: Marking with 5 nM of SYTOX green, and measurement of cytolysis.
The obtained results that are presented in the table below provide the percentage of CD34+ progenerating stock cells that is cytolyzed on D5.

SMILES | percentage of CD34+ progenerating stock cells that is cytolyzed on D5 (Epirubicin 4.74.10^6 M D1-D3 alone) [%] | percentage of CD34+ progenerating stock cells that is cytolyzed on D5 (Taxotere 2.80.10^6 M D1-D3 alone) [%]
COc1cccc2c1C(=O)c1c(O)c3c(c(O)c1C2=O)C[C@@](O)(C(=O)CO)C[C@@H]3O[C@H]1C[C@H](N)[C@@H](O)[C@H](C)O1 [Epirubicin] | 53.93 | 
CC(=O)O[C@@]12CO[C@@H]1C[C@H](O)[C@@]1(C)C(=O)[C@H](O)C3=C(C)[C@@H](OC(=O)[C@H](O)[C@@H](NC(=O)OC(C)(C)C)c4ccccc4)C[C@@](O)([C@@H](OC(=O)c4ccccc4)[C@H]21)C3(C)C [Taxotere] |  | 65.47

From patent US10463700B2, “Use of propolis for combating the side effects of chemotherapy” (POLLENERGIE, priority 2013, dated 2019)
